Measurements published in PubChem BioAssay (NCI).
Values joined by “and” are separate entries in the source; they are usually repeats but may differ in a detail not shown here. Equal entries are not always repeated.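 Test compounds were applied to cells in 96-well plates for 48 hours at 5 doses. GI50: concentration for 50% inhibition of growth. At the TGI there is no net growth.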

Assays:
Assay in all cases: NCI anticancer screen, dose series, 48 h
[1] = system: SNB-19 CNS
[2] = system: HL-60(TB) leukemia
[3] = system: OVCAR-4 ovarian
[4] = system: UO-31 renal
[5] = system: NCI-H226 lung
[6] = system: OVCAR-3 ovarian
[7] = system: 786-0 renal
[8] = system: DU-145 prostate
[9] = system: CAKI-1 renal
[10] = system: PC-3 prostate

| SMILES | GI50 [1] | TGI [1] | GI50 [2] | TGI [2] | GI50 [3] | TGI [3] | GI50 [4] | TGI [4] | GI50 [5] | TGI [5] | GI50 [6] | TGI [6] | GI50 [7] | TGI [7] | GI50 [8] | TGI [8] | GI50 [9] | TGI [9] | GI50 [10] | TGI [10] |
| --- | --- | --- | --- | --- | --- | --- | --- | --- | --- | --- | --- | --- | --- | --- | --- | --- | --- | --- | --- | --- |
| COc1cccc(-c2nn(-c3ccccc3)cc2-c2ccnc(NCCNC(=O)Nc3ccc(Cl)c(Cl)c3)c2)c1 | 2.63 µM | 9.8 µM | 2.43 µM | 6.85 µM | 3.25 µM | 16.2 µM | 1.44 µM | 5.03 µM | 3.63 µM | 18.7 µM | 2.59 µM | 8.2 µM | 1.55 µM | 3.28 µM | 3.52 µM | 12.7 µM | 2.79 µM | 11.1 µM | 2.5 µM | 8.36 µM |
| Cc1cc(CS(=O)(=O)/C=C/c2ccccc2[N+](=O)[O-])c(CS(=O)(=O)/C=C/c2ccccc2[N+](=O)[O-])cc1C | – | > 83.1 µM | – | > 100 µM | – | 32.3 µM | – | > 100 µM | – | 59.4 µM | – | > 100 µM | – | 34.9 µM | – | > 100 µM | – | > 100 µM | – | > 100 µM |
| c1ccc2c(c1)nc(NCCN1CCNCC1)c1c3ccccc3[nH]c21 | 0.381 µM | 3.15 µM | 0.308 µM | 1.36 µM | 0.379 µM | 2.24 µM | 0.567 µM | 2.05 µM | 1.2 µM | 3.91 µM | 0.413 µM | 2.51 µM | 0.342 µM | 1.6 µM | 0.227 µM | 1.4 µM | 0.454 µM | 2.81 µM | 0.356 µM | 1.97 µM |
| CN1CCCC1c1cccnc1.O=C(O)c1ccccc1O.O=C([O-])c1ccccc1[OH2+].O=C([O-])c1ccccc1[OH2+].O=C([O-])c1ccccc1[OH2+].[Mn+2] (stereo not drawn) | > 100 µM | > 100 µM | > 100 µM | > 100 µM | > 100 µM | > 100 µM | > 100 µM | > 100 µM | > 100 µM | > 100 µM | 11.4 µM | 39.3 µM | > 100 µM | > 100 µM | > 100 µM | > 100 µM | > 100 µM | > 100 µM | 95.5 µM | > 100 µM |
| Cc1ccc(C2=Nc3c(N)ncnc3NC(c3cccc(Nc4ccnc5cc(C(F)(F)F)ccc45)c3)C2)cc1 (stereo not drawn) | 6.71 µM | > 100 µM | 2.95 µM | 74.7 µM | 4.33 µM | > 100 µM | 2.79 µM | 22.8 µM | 15.2 µM | > 100 µM | 3.47 µM | 15.1 µM | 3.03 µM | 11.2 µM | 6.83 µM | > 100 µM | 3.15 µM | 15.2 µM | 2.8 µM | 12.5 µM |
| C/C(=C(/c1ccc(O)cc1)c1ccc(OCCN2CCCC2)cc1)c1ccccc1 | 2.95 µM | 8.1 µM | 2.04 µM | 4.97 µM | 4.7 µM | 17.5 µM | 1.87 µM | 5.72 µM | 11.3 µM | 29.8 µM | 5.66 µM | 18.1 µM | 1.86 µM | 4.09 µM | 9.72 µM | 21.4 µM | 3.02 µM | 13.9 µM | 4.28 µM | 14.7 µM |
| O=C1C=C(Nc2cccc(Br)c2)c2ccccc2C1=O | 6.56 µM | > 100 µM | 9.56 µM | 34.5 µM | 11 µM | 63.2 µM | 1.81 µM | 33.6 µM | 21.7 µM | 99.4 µM | 2.89 µM | 16 µM | 7.25 µM | 28.2 µM | 0.569 µM | 14 µM | 4.16 µM | > 100 µM | 8.68 µM | > 100 µM |
| Cc1nn(-c2ccccc2)c2c1C1C(=C(c3ccc(Cl)cc3)N2)C(=O)Nc2ccccc21 (stereo not drawn) | 5.28 µM | > 100 µM | 2.25 µM | 5.25 µM | 5.33 µM | > 100 µM | 2.86 µM | 30.3 µM | 7.34 µM | 36 µM | 4.39 µM | 20.3 µM | 3.97 µM | 31 µM | 7.01 µM | > 100 µM | 3.04 µM | > 100 µM | 2.65 µM | 13.1 µM |
| CC1(CC(=O)O)OC2CCCCCC2O1 (stereo not drawn) (tested in a mixture with another compound) | – | > 100 µM | – | > 100 µM | – | > 100 µM | – | > 100 µM | – | > 100 µM | – | > 100 µM | – | > 100 µM | – | > 100 µM | – | > 100 µM | – | > 100 µM |
| COc1ccccc1C(=O)c1cnc(NC2CCN(S(C)(=O)=O)CC2)nc1N | 4.71 µM | > 25 µM | 3.96 µM | 14.3 µM | 12.4 µM | > 25 µM | 7.43 µM | > 25 µM | 4.62 µM | > 23.1 µM | 9.15 µM | > 25 µM | 8.15 µM | > 25 µM | 6.51 µM | > 25 µM | 5.84 µM | > 25 µM | 3.48 µM | > 25 µM |
| O=C1c2c(O)cccc2C(C(=O)CCCCC(=O)C2c3cccc(O)c3C(=O)c3c(O)cccc32)c2cccc(O)c21 | 0.529 µM | 1.35 µM and 1.89 µM | 0.744 µM | 1.14 µM and 1.67 µM | 1.21 µM | 1.74 µM and 2.31 µM | 1.11 µM | 1.01 µM and 2.38 µM | 1.1 µM | 2.27 µM and 2.89 µM | 1.39 µM | 1.3 µM and 2.53 µM | 4.83 µM | 5.53 µM and 10.7 µM | – | 1.81 µM | 3.24 µM | 8.43 µM and 9.38 µM | – | 0.458 µM |
| Oc1cccc(-c2nc3ccccc3s2)c1 | – | > 100 µM | – | > 100 µM | – | > 100 µM | – | > 100 µM | – | 73 µM | – | > 100 µM | – | > 100 µM | – | > 100 µM | – | 66 µM | – | > 100 µM |
| CCOC(=O)c1[nH]c2c(c1C)-c1[nH]c(=O)c(S(=O)(=O)c3ccccc3)cc1SC2 | 81.1 µM | > 100 µM | 23.2 µM | > 100 µM | 28.8 µM | 86.5 µM | > 100 µM | > 100 µM | 64.4 µM | > 100 µM | 31.6 µM | > 100 µM | 46.3 µM | > 100 µM | 30.6 µM | > 100 µM | 54.1 µM | > 100 µM | 17.7 µM | > 100 µM |
| Nc1ncnc2occ(-c3ccc(NC(=O)Nc4cc(C(F)(F)F)cc(C(F)(F)F)c4)cc3)c12 | 4.1 µM | 9.54 µM | 4.13 µM | 12.9 µM | 1.81 µM | 5.92 µM | 1.93 µM | 6.89 µM | 0.584 µM | 4.53 µM | 3.24 µM | 6.71 µM | 3.54 µM | 7.07 µM | 3.59 µM | 7.34 µM | 2.6 µM | 10 µM | 3.07 µM | 8.33 µM |
| O=C(N[C@@H]1CCCc2ccccc21)[C@H](CCC(=O)N1CCN(C2CCCCC2)CC1)N1C(=O)[C@@H](N2C(=O)OC[C@@H]2c2ccccc2)[C@H]1/C=C/c1ccccc1 | 3.66 µM | 25.2 µM | 2.1 µM | 5.71 µM | 3.11 µM | 32 µM | 2.01 µM | 8.68 µM | 4.29 µM | 18.4 µM | 1.72 µM | 3.81 µM | 1.86 µM | 4.07 µM | 2.9 µM | 19.3 µM | 1.92 µM | 6.8 µM | 2.32 µM | 8.35 µM |
